Experimental data taken from article PMC9499467, “Phenanthroindolizidine Alkaloids Isolated from Tylophora ovata as Potent Inhibitors of Inflammation, Spheroid Growth, and Invasion of Triple-Negative Breast Cancer” (International Journal of Molecular Sciences, 2022).
Like-named read-outs stand apart in the source and are kept apart here.

Legend:
HIF-1α = assay: HIF inhibition, HIF-mediated UnaG reporter expression; format: cell-based
Method: The HIF activity after treatment with compound (1s) or with the commercially available NFκB inhibitor BAY 11-7085 ((Hycultec, Beutelsbach, Germany; #HY-10257-10),) for 24 h was determined using the UnaG-reporter gene cell line MDA-MB-468-UnaG. On day 1, 1.5 × 10^4 MDA-MB-468-UnaG cells were seeded into a black 96 well plate (Greiner; #655090). […] HIF-mediated UnaG expression was recorded in z-stacked images using the CQ1 high-content imaging system (Yokogawa, Wehr, Germany; 100× g magnification). Beforehand, the UnaG fluorescence intensity was determined in UnaG-expressing cell clones (Figure S5).
Figure 7 Compound (1s) decreases HIF-dependent gene transcription. MDA-MB-468-UnaG cells were pre-treated for 1 h without (CTRL) or with compound (1s) or BAY 11-7085 (BAY) before being grown (a,b) in the absence (normoxia; CTRL) or (c,d) presence of 100 µM CoCl2 (hypoxia) for another 24 h. (a,c) Representative fluorescence images. Scale bar: 200 µm (b,d) Total fluorescence intensity of HIF-mediated UnaG was normalized to the CTRL group. Statistical difference was calculated with one-way ANOVA (b) vs. CTRL (normoxia) (ns = not significant, * p < 0.05). (d) vs. CTRL (hypoxia) (# p < 0.05); vs. CoCl2 (* p < 0.05, ** p < 0.01, *** p < 0.001). (b,d) Columns represent the mean ± SEM (n = 3).

NFκB [1] = assay: NFκB inhibition assay (2 h), NFκB-dependent nanoluc luciferase reporter; format: cell-based, human
Method: Experiments were performed according to the published protocol. On day 1, 4 × 10^4 NFκB-MDA-MB-231-nanoluc cells were seeded into white 96 well plates (Greiner; #655098). On day 2, the medium was replaced with starvation medium and the cells were pre-incubated for 20 min with either 100 µL of DMSO (Roth; #A994.1) alone at a concentration of maximal 0.1% or with the final concentration of the diluted compounds (Table 3). To activate NFκB signaling, cells were stimulated with 1 µg/mL LPS (Sigma-Aldrich; #L2630) beforehand. NFκB-dependent luciferase activity was measured according to the manufacturer`s protocol for the Nano-Glo Luciferase Assay System (Promega, Mannheim, Germany; #N1110). NFκB-dependent luminescence was determined as relative light units (RLU) using the microplate reader Spark® (Tecan, Männedorf, Switzerland).

HIF = system: HIF; design: method as in earlier work; details: luminal breast cancer cell line T47D; ref 62 (Chen et al.); cited from earlier work
[2] = system: 3D co-culture spheroids of MDA-MB-231 and primary murine CAFs; assay: 3D cell viability (ATP content) in TNBC co-culture spheroids; format: cell-based, human MDA-MB-231; details: for IC50: Mus musculus
Method: On day 1, 3000 cells were seeded into a low-attachment 96 well plate (Greiner; #650970). […] Cell viability was determined based on the ATP content in viable cells according to the manufacturer`s instructions (Promega #G9682). Co-culture spheroids were generated for 72 h before they were grown for another 72 h with or without exposure to the compounds. […] Cell viability-dependent luminescence was determined as relative light units (RLU) using the microplate reader Spark® (Tecan).

CAFs = assay: 2D cell viability in CAFs; format: cell-based, murine; details: Mus musculus, 24 h, read-out: Reduction of Cell Viability 24 h IC50 in CAFs
Method: Table S1 IC50-values for reduction of cell viability determined in CAFs.
Compound Cell Viability 1
1 Cell viability of CAFs was determined 24 h post-treatment with the 2D cell viability assay. CAFs were seeded at a cell density of 2.5 × 10^3 cells per well. Compound concentration was applied in triplicates in a four-fold serial dilution starting at 1000 nM. 2 Duration of treatment. 3 Mean ± SD […]
50 µM. 4 Mean ± SD (n = 3). 5 Mean ± SD (n = 2).

MDA-MB-231 = assay: 2D cell viability (PrestoBlue resazurin) in MDA-MB-231; format: cell-based, human; details: Homo sapiens
Method: Cell viability was determined based on resazurin-reduction in viable cells according to the PrestoBlue^TM Assay. On day 1, MDA-MB-231 (1.5 × 10^4 cells per well or 7.5 × 10^3 cells per well) were seeded into black 96 well plates (Greiner; #655090) in a total volume of 100 µL. On day 2, the compounds or DMSO (Roth; #A994.1) alone at maximal 0.1% were applied (final concentrations after serial dilution shown in Table 3). An amount of 20 µM staurosporine (Sigma-Aldrich; #S5921) served as a positive control. On day 3, the PrestoBlue^TM reagent (Invitrogen^TM, Darmstadt, Germany; #A13262) was applied according to the manufacturer`s instructions. Finally, cell viability-dependent fluorescence was recorded in relative fluorescence units (RFU) with excitation/emission (Exλ/Emλ) at 535/590 nm or 560/590 nm, using the microplate reader Spark® (Tecan).

NFκB [3] = assay: NFκB inhibition assay (24 h), NFκB-dependent firefly luciferase reporter; format: cell-based; details: Homo sapiens, read-out: NFκB Inhibition 24 h IC50
Method: On day 1, 3 × 10^4 NFκB MDA-MB-231-firefly cells were seeded into white 96 well plates (Greiner; #655098). On day 2, the medium was replaced with starvation medium and the cells were pre-incubated for 20 min with either 100 µL of DMSO (Roth; #A994.1) alone at maximal 0.1%, or with the final concentration of the diluted compounds (Table 3). To activate NFκB signaling, cells were stimulated with 20 ng/mL TNFα (Peprotech, Hamburg, Germany; #300-01A). Cell lysis was performed in 20 µL 1× cell lysis buffer according to the manufacturer’s instruction for the Luciferase Assay System (Promega #E1500). NFκB-dependent luminescence was determined as relative light units (RLU) using the microplate reader Spark® (Tecan).

[4] = MDA-MB-231, 3D co-culture spheroids, 72 h treatment, mean ± SD (n = 3), read-out: Reduction of Cell Viability 72 h IC50
[5] = Homo sapiens, NFκB-MDA-MB-231-nanoluc cells, 2-h treatment, mean ± SD, read-out: NFκB Inhibition 2 h IC50
[6] = MDA-MB-231 2D monolayer, 24 h post-treatment, mean ± SD, read-out: Reduction of Cell Viability 24 h IC50
[7] = NFκB-MDA-MB-231-firefly cells, 24-h treatment, 20 ng/mL TNFα, mean ± SD

Row | SMILES | HIF induction under low oxygen level (HIF) | IC50 [2, 4] [nM] | IC50 (NFκB [1]; [5]) [nM] | IC50 (CAFs; CAFs, mean ± SD (n = 3)) [nM] | IC50 (MDA-MB-231; [6]) [nM] | IC50 (NFκB [3]; [7]) [nM] | further results
1 | CC(C)(C)c1ccc(S(=O)(=O)/C=C/C#N)cc1 [BAY 11-7085, reference compound] |  |  |  |  |  |  | effect on HIF-1α-mediated UnaG expression (HIF-1α; normoxia): no significant effects; CoCl2-induced increase in HIF-1α-activity (HIF-1α; pre-treatment before CoCl2-simulated hypoxia, 6 µM BAY 11-7085, 2, 5, 10, 20 nM (1s)): blocked; IC50 (NFκB [1]; NFκB-MDA-MB-231-nanoluc cells, 2-h treatment, mean ± SD, read-out: NFκB Inhibition 2 h IC50): 5500 ± 2000 nM
2 | COc1ccc2c3c(c4cc(OC)c(O)cc4c2c1)CN1CCC[C@H]1[C@H]3O [Compound (2), tylophorinidine] | blockade of HIF induction | 442 ± 70.8 | 212 ± 69.9 | 19.7 ± 3.7 | 118 ± 35 | 38.2 ± 14.2 | 
3 | COc1cc2c3c(c4ccc(O)cc4c2cc1OC)[C@H](O)[C@@H]1CCCN1C3 [Compound (3), tylophoridicine E] | blockade of HIF induction | 477 ± 160 | 285 ± 60.4 | 26.7 ± 3.1 | 55.3 ± 13.2 | 114 ± 17.9 | 
4 | COc1ccc2c3c(c4cc(OC)c(OC)cc4c2c1)CN1CCC[C@H]1C3 [Compound (4), 2-demethoxytylophorine] |  |  |  |  |  |  | IC50 ([2]; MDA-MB-231, 72 h, read-out: Reduction of Cell Viability 72 h IC50, 3D co-culture spheroids, 72 h treatment, mean ± SD (n = 3)): 518 ± 76.8 nM; IC50 (NFκB [1]; Homo sapiens, 2 h, read-out: NFκB Inhibition 2 h IC50, NFκB-MDA-MB-231-nanoluc cells, 2-h treatment, mean ± SD): 83 ± 14.7 nM; IC50 (CAFs): 33.5 ± 12.7 nM; IC50 (MDA-MB-231; MDA-MB-231, 24 h, read-out: Reduction of Cell Viability 24 h IC50, MDA-MB-231 2D monolayer, 24 h post-treatment, mean ± SD): 127 ± 21.4 nM; IC50 (NFκB [3]; 24 h): 28.3 ± 5.6 nM
5 | COc1ccc2c(c1)c1cc(OC)c(OC)cc1c1c[n+]3c(cc21)CCC3 [Compound (5), tylophoridicine D] | not | > 1000 | > 1000 | > 1000 | > 1000 | > 1000 | cytotoxic activity ([2]; in MDA-MB-231 or in the 3D co-culture spheroids): no cytotoxic activity
6 | COc1ccc2c(c1)c1cc(O)c(OC)cc1c1c[n+]3c(cc21)CCC3 [Compound (6), anhydrodehydrotylophorinidine] |  | > 1000 | > 1000 | > 1000 | > 1000 | > 1000 | cytotoxic activity [2]: no cytotoxic activity
7 | COc1ccc2c3c(c4cc(OC)c(OC)cc4c2c1)CN1CCC[C@H]1[C@@H]3O [tylophorinine] | blockade of HIF induction |  |  |  |  |  | 
